# Measurements from US7790896B2, “RNA-selective probes for live cell imaging of nuclear structure and function” (New York University, priority 2006, dated 2010).
# Tested on: not listed separately
# Test: Fluorescence spectrum in TE buffer of dyes selected from live cell imaging
# Assay type: physicochemical
# Conditions: dye 10 μM in TE buffer
# Experimental: (§1) The fluorescence spectra data in the primary screening and selected dyes titration assay study was obtained by Gemini XS plate reader. RNA solution was prepared right before the assay experiments to avoid possible degradation and contamination. In the primary screening, 1 mg/mL RNA (type VI from torula yeast) buffer solution was used. Point scans were carried out first using five Ex/Em point sets ([…], 400/500, 450/550, 500/600, 550/650 nm). Spectra scans were then carried out for the selected dyes. Excitation wavelengths were set at 350 nm, 400 nm, 450 nm, 500 nm, and 550 nm and the emission wavelengths were scanned. RNA (16S- and 23S-ribosomal from E. coli) and DNA (salmon testes) titration experiments and quantum yield/extinction coefficient determination for the three best dyes were carried out by the plate reader as well. Excitation λmax obtained from F-2500 Hitachi Fluorophotometer was used. Absorbance wavelength was determined by SpectraMax Plus^384 absorbance plate reader. […] was chosen as standard and 480 nm was used as excitation wavelength in the scanning for quantum yield determination.
Structure (SMILES),SPECTRUM EM [nm],SPECTRUM EX [nm]
COc1ccc(-c2ccc(/C=C/c3cccc[n+]3C)o2)cc1Cl [Dye B139],570,450
C[n+]1ccc(C=Cc2cccc(F)c2F)c2ccccc21 [Dye D84],460,350
Cc1ccc2ccccc2c1/C=C/c1cc[n+](C)c2ccccc12 [Dye D143],530,400
COc1ccc(/C=C/c2ccc3ccccc3[n+]2C)cc1 [Dye E63],480,400
C[n+]1c(C=Cc2cc(C(C)(C)C)ccc2O)ccc2ccccc21 [Dye E73],550,450
C[n+]1c(/C=C/c2ccc(Br)s2)ccc2ccccc21 [Dye E77],470,350
COc1ccc(Oc2cccc(/C=C/c3ccc4ccccc4[n+]3C)c2)cc1 [Dye E83],450,350
C[n+]1c(/C=C/c2ccc(-c3cccs3)s2)ccc2ccccc21 [Dye E119],600,450

# The remaining lines, values ahead:
SPECTRUM EM [nm],SPECTRUM EX [nm],Structure (SMILES)
490,400,COc1ccc2c(ccc(C=Cc3cccc(Br)c3)[n+]2C)c1 [Dye F40]
590,450,COc1ccc2c(ccc(/C=C/c3ccc(OC)c4ccccc34)[n+]2C)c1 [Dye F41]
560,450,COc1ccc2c(ccc(C=Cc3ccc4c(c3)OCO4)[n+]2C)c1 [Dye F43]
490,400,COc1ccc2c(ccc(/C=C/c3ccco3)[n+]2C)c1 [Dye F45]
470,350,COc1ccc2c(ccc(C=Cc3ccccc3Br)[n+]2C)c1 [Dye F47]
480,400,COc1ccc2c(ccc(/C=C/c3ccoc3)[n+]2C)c1 [Dye F48]
490,400,COc1ccc2c(ccc(C=Cc3cc(C(C)(C)C)ccc3O)[n+]2C)c1 [Dye F73]
550,450,COc1ccc2c(ccc(/C=C/C3CCCN3C)[n+]2C)c1 (centres unmarked) [Dye F74]
440,350,COc1ccc2c(ccc(/C=C/c3ccc(Br)s3)[n+]2C)c1 [Dye F77]
490,400,COc1ccc2c(ccc(/C=C/c3cccc(C(F)(F)F)c3)[n+]2C)c1 [Dye F82]
460,350,COc1ccc(Oc2cccc(C=Cc3ccc4cc(OC)ccc4[n+]3C)c2)cc1 [Dye F83]
470,400,COc1ccc2c(ccc(/C=C/c3c(C)cc(C)cc3C)[n+]2C)c1 [Dye F85]
460,350,COc1ccc2c(ccc(/C=C/C=C/c3ccccc3OC)[n+]2C)c1 [Dye F97]
470,350,CCCCCC(/C=C/c1ccc2cc(OC)ccc2[n+]1C)=C\c1ccccc1 [Dye F101]
460,350,CCOc1cccc(C=Cc2ccc3cc(OC)ccc3[n+]2C)c1O [Dye F104]
650,500,COc1ccc2c(ccc(/C=C/c3cc4c5c(c3O)CCCN5CCC4)[n+]2C)c1 [Dye F115]
520,400,COc1ccc2c(ccc(/C=C/c3ccccc3OCC(=O)O)[n+]2C)c1 [Dye F116]

# Tested on: RNA (Type VI from torula yeast)
# Test: In vitro solution assay (primary screening): fluorescent emission fold change upon binding to RNA
# Conditions: dye 10 μM, RNA 500 μg/mL in TE buffer
# Experimental: as §1
# The screening strategy used in this study is illustrated in FIG. 2. Both in vitro RNA assays and live cell imaging methods were utilized in the primary screening of the dye library. Selective binding of the dye to RNA in solution was the primary criterion for selecting lead compounds for subsequent bioimaging studies, Herein, the library dyes' fluorescent emission intensity fold change upon binding to RNA was measured in solution. Dyes showing five-fold or higher emission changes in the presence of RNA were selected (Table 3). Note the dyes listed are identified by the building blocks I and II from Table 2. For example, A4 is the product made by reacting compound A from the list of Building block I and compound 4 from the list of Building block II.
Structure (SMILES),Em(nm),Ex(nm),Fold (fluorescent emission fold changes to RNA)
C[n+]1ccc(/C=C/c2c[nH]c3ccccc23)cc1 [Dye A4],540,450,11
COc1cc(OC)c(OC)cc1/C=C/c1cc[n+](C)cc1 [Dye A8],580,450,37
CN(CCC#N)c1ccc(/C=C/c2cc[n+](C)cc2)cc1 [Dye A9],600,500,21
CN(CCO)c1ccc(/C=C/c2cc[n+](C)cc2)cc1 [Dye A10],610,500,23
CN(C)c1ccc(C=Cc2cc[n+](C)cc2)cc1 [Dye A22],610,500,28
CN(C)c1ccc(C=Cc2cc[n+](C)cc2)c2ccccc12 [Dye A24],660,500,103
C[n+]1ccc(C=Cc2c(O)ccc3ccccc23)cc1 [Dye A42],560,450,10
Cn1c(/C=C/c2cc[n+](C)cc2)cc2ccccc21 [Dye A108],590,450,8
Cc1cc(C=Cc2cc[n+](C)cc2)c(C)n1-c1cccc(C(F)(F)F)c1 [Dye A121],540,450,28
CCN(CC)c1ccc(C=Cc2cc[n+](C)cc2)c(C#N)c1 [Dye A132],610,500,17
COc1cc(OC)c(C=Cc2cc[n+](C)cc2)c(OC)c1 [Dye A144],530,450,26
COc1cc(/C=C/c2cc[n+](C)cc2)c(OCc2ccccc2)cc1OC [Dye A156],580,450,42
CCN(CC)c1ccc(C=Cc2cccc[n+]2C)cc1 [Dye B92],600,500,28
CCN(CC)c1ccc(/C=C/c2cccc[n+]2C)c(C#N)c1 [Dye B132],590,500,28
COc1cc(/C=C/c2cccc[n+]2C)c(OCc2ccccc2)cc1OC [Dye B156],560,450,54
COc1cc(OC)c(OC)cc1C=Cc1cccc(C)[n+]1C [Dye C8],570,450,9
Cc1cccc(/C=C/c2ccc(N(C)CCC#N)cc2)[n+]1C [Dye C9],610,500,9
Cc1cccc(/C=C/c2ccc(N(C)C)cc2)[n+]1C [Dye C22],630,500,6
CCN(CC)c1ccc(/C=C/c2cccc(C)[n+]2C)cc1 [Dye C92],630,500,15
Cc1cccc(C=Cc2cc3ccccc3n2C)[n+]1C [Dye C108],580,450,8
CCn1c2ccccc2c2cc(C=Cc3cc[n+](C)c4ccccc34)ccc21 [Dye D107],620,500,13
Cn1c(/C=C/c2cc[n+](C)c3ccccc23)cc2ccccc21 [Dye D108],630,500,21
C[n+]1c(C=Cc2ccc3c(c2)OCO3)ccc2ccccc21 [Dye E43],560,450,10
Cn1c(C=Cc2ccc3ccccc3[n+]2C)cc2ccccc21 [Dye E108],620,500,21
C[n+]1c(C=Cc2cc(Br)c(Cl)c(Br)c2)ccc2ccccc21 [Dye E111],620,500,17

# The remaining lines, values ahead:
Em(nm),Ex(nm),Fold (fluorescent emission fold changes to RNA),Structure (SMILES)
560,450,62,COc1ccc2c(ccc(/C=C/c3c[nH]c4ccccc34)[n+]2C)c1 [Dye F4]
610,500,52,COc1ccc2c(ccc(C=Cc3cc(OC)c(OC)cc3OC)[n+]2C)c1.[I-] [Dye F8]
620,500,86,COc1ccc2c(ccc(C=Cc3ccc(N(C)CCC#N)cc3)[n+]2C)c1 [Dye F9]
630,500,38,COc1ccc2c(ccc(C=Cc3ccc(N(C)CCO)cc3)[n+]2C)c1 [Dye F10]
640,500,20,CCN(CC)c1ccc(C=Cc2ccc3cc(OC)ccc3[n+]2C)cc1 [Dye F92]
610,500,27,COc1ccc2c(ccc(/C=C/c3cc4ccccc4n3C)[n+]2C)c1 [Dye F108]
640,500,14,CCN(CC)c1ccc(C=Cc2ccc3cc(OC)ccc3[n+]2C)c(C#N)c1 [Dye F132]
